How the values were obtained:
[1] = system: sandwich-cultured human hepatocytes; assay: ERA effect on hepatobiliary disposition of d8-taurocholate (B-CLEAR sandwich culture); assay type: cell-based; details: n = 3 donors; for d8-TCA cellular accumulation (% control) / d8-TCA total accumulation (% control): 2.5 µM d8-TCA, 10 min
Description: Sandwich-cultured human hepatocytes were obtained from Celsis/IVT (Baltimore, MD) or Life Technologies (Durham, NC). Donors were male (n = 3) and female (n = 1) between the ages of 31 and 62 years old. Hepatic uptake, biliary excretion and in vitro biliary clearance (Clb) were determined using the B-CLEAR® hepatocyte sandwich culture model as described by Liu et al., 1999 [34]. In this system, hepatocytes form functional bile canalicular networks while maintaining the expression and function of key uptake and efflux transporters. The canalicular system of bile pockets remains separate from the cellular culture media due to tight junctions between cells. The integrity of these tight junctions is maintained in the presence of calcium (Plus (+) buffer) while in the absence of calcium (Minus (−) buffer), these tight junctions open and release the contents of the canalicular network into the media.
A dose solution containing 2.5 µM d8-taurocholic acid (d8-TCA) was prepared in Plus (+) Buffer. Co-incubation solutions were prepared by combining d8-TCA dose solution and ERA or rifamycin-SV. Hepatocytes were washed and then conditioned for 10 min in warm Plus (+) or Minus (−) buffer with and without ERA or rifamycin-SV. Pre-incubation solutions were then removed and replaced with dose or co-incubation solutions and incubated for 10 min at 37°C. Following this 10 minute incubation, the dose or co-incubation solutions were removed and the cells were then washed three times with ice-cold Plus (+) buffer. The plates were then frozen at −80°C until processed for bioanalysis.
Study samples were stored in their original 24-well plates at −80°C until prepared for analysis. A volume of 500 µL of cell lysis solution (70∶30 methanol:water) containing 25 nM internal standard was added to each well and mixed for 20 min of mixing. The volume in each well was then transferred to a 96-well filter plate stacked on a Greiner deep well collection plate. The filter plate/collection plate was then centrifuged at 2000 rcf for 5 min. The filtrate was then evaporated to dryness under nitrogen. Samples were reconstituted in 200 µL of sample diluent (60∶40 methanol:10 mM ammonium acetate, native pH), sealed, and placed on a plate shaker for 15 min. These samples were then transferred to a Whatman 96-well 0.45 µm PVDF filter plate stacked on a Costar 3956 plate (HPLC injection plate), centrifuged at 2000 rcf for 2–3 min, and sealed with a silicon cap mat prior to LC-MS/MS analysis. d8-TCA standard spiking solutions were prepared in 50∶50 methanol:water. For a given lysate standard or control, 10 µL was added to each well of a previously frozen analytical plate. Standards representing 0.5–100 pmoles/well and QC’s at the LLQ and ULQ were prepared. These lysate standards and controls were then further processed as described above for unknown study samples. Prepared samples were filtered and analyzed by LC-MS/MS using a Shimadzu binary HPLC system (Columbia, MD) and tandem mass spectrometry using Thermo Electron TSQ® Quantum Discovery MAX™ (Waltham, MA) with an Ion Max ESI source operating in negative ion electrospray ionization mode. Results for unknowns and QCs were calculated using a standard curve based on an internal standard processing method.
Data calculations were performed using Microsoft Excel, 2010 with all values reported as mean ± standard deviation (SD). Statistical comparisons across ERA treatments were performed using analysis of variance (ANOVA) with Fisher’s PLSD post hoc analysis (Statview 5.0, SAS Institute, Cary NC); statistical significance was considered to be P<0.05. All mass values were normalized to mg protein by taking the average protein mass in the taurocholate plate determined using a BCA protein assay (Pierce Biotechnology, Rockford, IL). Cellular accumulation determined in Minus (−) buffer (Accumulation Minus (−) Buffer) represents the total mass of analyte inside the hepatocyte at the end of the incubation time period. […]

MRP2 = target: T1, MRP2 (Homo sapiens, UniProt Q92887); assay: MRP2 inhibition, estradiol-17-beta-glucuronide transport in Sf9 membrane vesicles; assay type: biochemical; details: E217βG 0.2 µM, single experiment in duplicate, tested 0.14–100 µM
T1 construct: purchased Solvo Biotechnology, Budaors, Hungary; host or cells: Sf9 insect cells (membrane vesicles)
From the text: Chinese Hamster Ovary (CHO) cells were obtained from Professor B. Stieger’s laboratory at University of Zurich, Zurich, Switzerland. Madin-Darby Canine Kidney strain II (MDCKII) cells were obtained from Nederlands Kanker Instituut (NKI), Amsterdam, Netherlands. NTCP-CHO cells, BSEP and MRP2 membrane vesicles were developed and validated at Solvo Biotechnology, Budaors, Hungary.
BSEP and MRP2 inhibition was studied in membrane vesicles isolated from sf9 insect cells overexpressing the respective transporters. Vesicular transport inhibition assays used test compounds incubated with membrane vesicle preparations (total protein: 50 µg/well) and probe substrates, taurocholate (2 µM) for BSEP or Estradiol-17-beta-glucuronide (0.2 µM) for MRP2, in the absence or presence of ATP. Reaction mixtures were preincubated for 15 min at 37°C. Reactions were started by the addition of 25 µL of 12 mM MgATP or assay buffer (for background controls), preincubated separately. Reactions were stopped after 5 min by the addition of 200 µL of ice-cold washing buffer and immediate filtration via glass fiber filters mounted to a 96-well plate (filter plate). The filters were washed, dried and the amount of substrate inside the filtered vesicles determined by liquid scintillation. Cyclosporin A (20 µM) or benzbromarone (100 µM), for BSEP or MRP2, respectively, were used as positive control inhibitors. Control membranes lacking transporter expression were used as negative control.
All assays were performed in duplicate. IC50 was defined as the test article concentration needed to inhibit the maximal transporter specific accumulation by 50%. IC50 values were calculated using non-linear fitting of % inhibition versus concentration to a sigmoidal curve with a variable Hill Coefficient using GraphPad Prism 5 (GraphPad Software Inc., San Diego, CA).

NTCP = system: NTCP; design: method as in PMID 20628435; details: concentrations tested 2, 20, and 100 µM, Hartman et al. ref 29; cited from earlier work

T1 sequence (Q92887 whole entry): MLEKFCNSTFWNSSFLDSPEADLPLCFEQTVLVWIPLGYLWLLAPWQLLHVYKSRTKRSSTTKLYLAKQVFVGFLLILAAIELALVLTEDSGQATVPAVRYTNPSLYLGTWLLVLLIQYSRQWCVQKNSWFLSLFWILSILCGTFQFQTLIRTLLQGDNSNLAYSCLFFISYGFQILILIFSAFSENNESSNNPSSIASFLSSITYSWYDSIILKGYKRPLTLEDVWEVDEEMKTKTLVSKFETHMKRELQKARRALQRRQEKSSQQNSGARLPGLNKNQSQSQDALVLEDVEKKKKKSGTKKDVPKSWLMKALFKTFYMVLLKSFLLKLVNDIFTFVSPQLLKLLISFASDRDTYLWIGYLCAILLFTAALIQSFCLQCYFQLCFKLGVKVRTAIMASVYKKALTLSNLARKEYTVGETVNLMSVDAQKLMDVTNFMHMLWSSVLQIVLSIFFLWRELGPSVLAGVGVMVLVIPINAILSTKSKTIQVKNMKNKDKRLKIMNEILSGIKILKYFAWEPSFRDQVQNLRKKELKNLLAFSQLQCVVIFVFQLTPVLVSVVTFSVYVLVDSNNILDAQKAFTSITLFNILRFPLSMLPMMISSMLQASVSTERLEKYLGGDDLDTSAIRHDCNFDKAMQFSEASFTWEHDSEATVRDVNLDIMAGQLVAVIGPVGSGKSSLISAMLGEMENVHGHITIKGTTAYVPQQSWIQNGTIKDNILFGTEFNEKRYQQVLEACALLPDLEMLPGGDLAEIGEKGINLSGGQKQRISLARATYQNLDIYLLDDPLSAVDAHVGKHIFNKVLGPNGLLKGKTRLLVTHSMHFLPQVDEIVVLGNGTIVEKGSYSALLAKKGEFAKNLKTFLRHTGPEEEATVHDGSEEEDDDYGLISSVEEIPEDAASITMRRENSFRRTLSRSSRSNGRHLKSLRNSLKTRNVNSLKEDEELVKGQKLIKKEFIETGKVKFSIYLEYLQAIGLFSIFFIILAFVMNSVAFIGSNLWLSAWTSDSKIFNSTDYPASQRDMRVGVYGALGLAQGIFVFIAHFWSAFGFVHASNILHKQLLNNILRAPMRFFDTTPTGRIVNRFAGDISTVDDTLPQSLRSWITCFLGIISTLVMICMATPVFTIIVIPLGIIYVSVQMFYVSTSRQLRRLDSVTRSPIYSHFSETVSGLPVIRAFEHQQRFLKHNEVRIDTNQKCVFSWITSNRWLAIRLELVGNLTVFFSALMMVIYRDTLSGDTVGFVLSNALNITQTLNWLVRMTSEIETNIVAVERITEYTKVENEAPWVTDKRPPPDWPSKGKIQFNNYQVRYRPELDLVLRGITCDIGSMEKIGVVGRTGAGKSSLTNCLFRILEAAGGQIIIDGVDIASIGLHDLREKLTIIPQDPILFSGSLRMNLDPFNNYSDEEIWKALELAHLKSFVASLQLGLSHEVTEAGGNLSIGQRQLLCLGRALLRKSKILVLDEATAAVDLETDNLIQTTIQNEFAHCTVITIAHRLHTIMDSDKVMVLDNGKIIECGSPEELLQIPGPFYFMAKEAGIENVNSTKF

For `COC(c1ccccc1)(c1ccccc1)[C@H](Oc1nc(C)cc(C)n1)C(=O)O` [ambrisentan], the “d8-TCA cellular accumulation (% control)” value ([1]; 33 µM ERA) was 71%, the “d8-TCA cellular accumulation (% control)” value ([1]; 100 µM ERA) was 52% and the IC50 (MRP2) was ~75 µM. The “inhibition of NTCP” value (NTCP) was “did not”.

In the case of `COc1ccccc1Oc1c(NS(=O)(=O)c2ccc(C(C)(C)C)cc2)nc(-c2ncccn2)nc1OCCO` [bosentan], the “d8-TCA cellular accumulation (% control)” value ([1]; 11 µM ERA) is reported as 66.5±5.3%, the “d8-TCA total accumulation (% control)” value ([1]; 11 µM ERA) is reported as 68.6±1.5% and the “d8-TCA in vitro biliary clearance (Clb), percent of control” value (“d8-TCA … (Clb), percent of control” for short) ([1]; 11 µM ERA) is reported as 69.2±0.1%. The “d8-TCA total accumulation (% control)” value ([1]; 33 µM ERA) was 62.6±6.6%, the “d8-TCA … (Clb), percent of control” value ([1]; 33 µM ERA) was 58.7±11.4% and the “d8-TCA cellular accumulation (% control)” value ([1]; 100 µM ERA) was 44.5±3.6%. For the same compound, the “d8-TCA total accumulation (% control)” value ([1]; 100 µM ERA) was 31.7±5.9%, the “d8-TCA biliary efflux (BEI), percent of control” value ([1]; 100 µM ERA) was 85.2±13.9% and the “d8-TCA … (Clb), percent of control” value ([1]; 100 µM ERA) was 27.0±9.3%. For the same compound, the IC50 (MRP2) was > 100 µM and the “inhibition of NTCP” value (NTCP) was “inhibited”.

With `CCCNS(=O)(=O)Nc1ncnc(OCCOc2ncc(Br)cn2)c1-c1ccc(Br)cc1` [macitentan] the “d8-TCA cellular accumulation (% control)” value ([1]; 33 µM ERA) was 42.1±4.5%, the “d8-TCA total accumulation (% control)” value ([1]; 33 µM ERA) was 23.6±0.5% and the “d8-TCA biliary efflux (BEI), percent of control” value ([1]; 33 µM ERA) was 72.9±8.0%. For the same compound, the “d8-TCA … (Clb), percent of control” value ([1]; 33 µM ERA) was 17.2±2.3%, the “d8-TCA cellular accumulation (% control)” value ([1]; 100 µM ERA) was 6.2±0.5% and the “d8-TCA total accumulation (% control)” value ([1]; 100 µM ERA) was 4.8±0.2%. For the same compound, the “d8-TCA … (Clb), percent of control” value ([1]; 100 µM ERA) was 4.3±0.5% and the IC50 (MRP2) was > 100 µM.

For `Cc1cc2c(cc1CC(=O)c1sccc1S(=O)(=O)Nc1onc(C)c1Cl)OCO2` [sitaxsentan], the “inhibition of NTCP” value (NTCP) is listed as “inhibited”.

Reference: paper PMC3907537, “Evaluation of the Endothelin Receptor Antagonists Ambrisentan, Bosentan, Macitentan, and Sitaxsentan as Hepatobiliary Transporter Inhibitors and Substrates in Sandwich-Cultured Human Hepatocytes” (PLoS ONE, 2014)
